Test results from patent US5021236A, “Method of enhancing NMR imaging using chelated paramagnetic ions bound to biomolecules” (Schering Aktiengesellschaft, priority 1981, dated 1991).

What was measured:
aqueous solubility = assay type: physicochemical; conditions: in water
[1] = NMR detection of a defective blood-brain barrier in the region of a cranial abscess; assay type: in vivo; conditions: NMR diagnosis; complex in the form of salts with good aqueous solubility; preferably 0.1-0.5 mmole/kg
Description: In contrast to conventional X-ray diagnosis with radiopaque X-ray contrast media, in NMR diagnosis with paramagnetic contrast medium there is no linear dependence of the signal enhancement on the concentration used. […] For this reason, it was surprising that some pathological processes can be seen only after application of a strongly paramagnetic contrast medium, according to the invention, higher than the doses indicated in EP No. 71564 (which can be from 0.001 mmole/kg to 5 mmole/kg). […] For a dose greater than 0.1 mmole/kg, solutions of high concentrations up to 1 mole/l, preferably 0.25 to 0.75 mole/l, are necessary, since only in this way is the volume load reduced and handling of the injection solution assured.

| Compound | aqueous solubility (aqueous solubility) | dose at which a defective blood-brain barrier can be detected [1] [mmol/kg] |
| --- | --- | --- |
| O=C([O-])CCCCCCCCCCNC(=O)CN(CCN(CCN(CC(=O)[O-])CC(=O)NCCCCCCCCCCC(=O)[O-])CC(=O)[O-])CC(=O)[O-].[Gd+3].[Na+].[Na+] [Example 2, disodium salt of gadolinium(III) complex of 13,23-dioxo-15,18,21-tris(carboxymethyl)-12,15,18,21,24-pentaazapentatriacontanedioic acid] | good aqueous solubility |  |
| O=C([O-])CN(CCN(CC(=O)[O-])CC(=O)NCCCCCCCCCCC(=O)O)CCN(CC(=O)[O-])CC(=O)NCCCCCCCCCCC(=O)O.[Gd+3] [Gadolinium(III) complex of 13,23-dioxo-15,18,21-tris(carboxymethyl)-12,15,18,21,24-pentaazapentatriacontanedioic acid] | insoluble in water |  |
| O=C([O-])CN(CCN(CC(=O)[O-])CC(=O)O)CCN(CC(=O)[O-])CC(=O)O.[Gd+3] [gadolinium diethylenetriaminepentaacetic acid] |  | 0.05 to 2.5 |
| O=C(O)CN(CC(=O)O)C1CCCCC1N(CC(=O)O)CC(=O)O.[Mn] (stereo not shown) [manganese-1,2-cyclohexenediaminetetraacetic acid] |  | 0.05 to 2.5 |
